Test results reported in ChEMBL document CHEMBL4364246, “Synthesis and biological evaluation of 5-aminoethyl benzophenanthridone derivatives as DNA topoisomerase IB inhibitors” (Eur J Med Chem, 2019).
Calls of active or inactive are those of the source. The rule behind the calls is not given here.

Tests used:
[1] = test system: HCT-116; experiment: Induction of apoptosis in human HCT116 cells assessed as viable cells at 1 uM incubated for 24 hrs by FITC and PI staining based flow cytometric analysis (reference value: 99.27%); type: functional; settings: HCT-116, 24 h, read-out: Activity
[2] = target: T1, DNA topoisomerase 1 (Homo sapiens) (UniProt P11387); experiment: Inhibition of TOP1 in human HCT116 cells assessed as induction of cellular TOP1cc formation incubated for 1 hr by chemiluminescence based assay; type: cell-based
T1 sequence (whole entry): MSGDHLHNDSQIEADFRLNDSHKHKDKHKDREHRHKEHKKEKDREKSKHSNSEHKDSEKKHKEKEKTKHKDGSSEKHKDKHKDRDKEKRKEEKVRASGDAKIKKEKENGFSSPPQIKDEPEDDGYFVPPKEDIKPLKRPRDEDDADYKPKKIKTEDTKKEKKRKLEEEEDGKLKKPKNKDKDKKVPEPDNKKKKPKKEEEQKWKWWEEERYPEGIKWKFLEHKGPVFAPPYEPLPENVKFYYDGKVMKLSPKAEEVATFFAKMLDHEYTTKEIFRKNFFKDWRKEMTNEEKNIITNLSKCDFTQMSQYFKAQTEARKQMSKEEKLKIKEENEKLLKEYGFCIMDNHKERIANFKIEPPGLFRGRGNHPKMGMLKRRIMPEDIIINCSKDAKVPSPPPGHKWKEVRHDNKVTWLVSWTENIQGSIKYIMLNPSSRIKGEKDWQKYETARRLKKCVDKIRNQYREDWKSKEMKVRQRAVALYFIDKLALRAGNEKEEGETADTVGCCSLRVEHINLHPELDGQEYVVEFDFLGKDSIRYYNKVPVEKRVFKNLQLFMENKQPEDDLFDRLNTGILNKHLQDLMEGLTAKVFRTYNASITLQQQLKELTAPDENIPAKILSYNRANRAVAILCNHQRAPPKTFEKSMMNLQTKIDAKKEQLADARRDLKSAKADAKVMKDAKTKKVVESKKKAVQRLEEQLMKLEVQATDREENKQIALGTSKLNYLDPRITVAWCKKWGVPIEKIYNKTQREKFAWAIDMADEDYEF

[3] = Oral bioavailability in Sprague-Dawley rat at 5 mg/kg measured for 0.083 to 4 hrs by LC-MS/MS analysis; type: ADME, organism-based; settings: in vivo
[4] = test system: HCT-116; experiment: Induction of apoptosis in human HCT116 cells assessed as viable cells at 0.5 uM incubated for 24 hrs by FITC and PI staining based flow cytometric analysis (reference value: 99.27%); type: functional; settings: HCT-116, 24 h, read-out: Activity
[5] = target: T1, DNA topoisomerase 1 (Homo sapiens); experiment: Inhibition of TOP1 in human HCT116 cells assessed as induction of cellular TOP1cc formation at 25 uM incubated for 1 hr by chemiluminescence based assay; type: cell-based
[6] = Cmax in Sprague-Dawley rat at 5 mg/kg, ig measured for 0.083 to 4 hrs by LC-MS/MS analysis; type: ADME, organism-based; design: dose 5 mg/kg, route […]; settings: in vivo, po
[7] = test system: HCT-116; experiment: Antitumour activity against human HCT116 cells xenografted in ip dosed athymic nude nu/nu mouse assessed as reduction in tumor volume administrated daily by caliper method; type: functional, organism-based
[8] = MRT (0 to infinity) in Sprague-Dawley rat at 1 mg/kg, iv measured for 0.083 to 4 hrs by LC-MS/MS analysis; settings: in vivo
[9] = test system: HCT-116; experiment: Antitumour activity against human HCT116 cells xenografted in athymic nude nu/nu mouse assessed as inhibition in tumor weight at 10 mg/kg administrated daily by caliper method relative to control; type: functional
[10] = Solubility of the compound in DMSO; type: physicochemical
[11] = Growth inhibition of human DU145/RC0.1 cells harboring TOP1 R364H mutant incubated for 72 hrs by MTT assay; type: functional; settings: DU-145, 72 h
[12] = Acute toxicity in ip dosed Kunming mouse assessed as mortality administrated for 7 days; type: organism-based; settings: in vivo, 168 h
[13] = test system: HCT-116; experiment: Induction of apoptosis in human HCT116 cells assessed as viable cells at 2 uM incubated for 24 hrs by FITC and PI staining based flow cytometric analysis (reference value: 99.27%); type: functional; settings: HCT-116, 24 h, read-out: Activity
[14] = Acute toxicity in Kunming mouse assessed as animal survival at 122.9 mg/kg, ip administrated as single dose measured for 7 days post administration; type: organism-based; settings: in vivo
[15] = AUC (0 to infinity) in Sprague-Dawley rat at 1 mg/kg, iv measured for 0.083 to 4 hrs by LC-MS/MS analysis; type: ADME, organism-based; design: dose 1 mg/kg, route intravenous, time infinity; settings: in vivo
[16] = Acute toxicity in Kunming mouse assessed as mortality at 153.6 to 240 mg/kg, ip administrated as single dose measured for 7 days post drug administration; type: organism-based; settings: in vivo, 168 h
[17] = test system: MCF7; experiment: Antitumour activity against human MCF7 cells xenografted in athymic nude nu/nu mouse assessed as inhibition in tumor weight at 5 mg/kg administrated daily by caliper method relative to control; type: functional
[18] = test system: MCF7; experiment: Antitumour activity against human MCF7 cells xenografted in ip dosed athymic nude nu/nu mouse assessed as reduction in tumor volume administrated daily by caliper method; type: functional, organism-based
[19] = test system: MCF7; experiment: Antitumour activity against human MCF7 cells xenografted in athymic nude nu/nu mouse assessed as inhibition in tumor weight at 20 mg/kg administrated daily by caliper method relative to control; type: functional
[20] = target: T1, DNA topoisomerase 1 (Homo sapiens); experiment: Inhibition of TOP1 in human HCT116 cells assessed as induction of DNA damage by measuring increase in gammaH2AX foci at 1 uM incubated for 3 hrs by DAPI staining based immunofluorescence microscopic method; type: cell-based
[21] = test system: HCT-116; experiment: Growth inhibition of human HCT116 cells expressing siTOP1 incubated for 72 hrs by MTT assay; type: functional; settings: HCT-116, 72 h
[22] = AUC (0 to t) in Sprague-Dawley rat at 1 mg/kg, iv measured for 0.083 to 4 hrs by LC-MS/MS analysis; type: ADME, organism-based; design: time 0.083-4 hr, dose 1 mg/kg, route intravenous; settings: in vivo
[23] = AUC (0 to t) in Sprague-Dawley rat at 5 mg/kg, ig measured for 0.083 to 4 hrs by LC-MS/MS analysis; type: ADME, organism-based; design: time upper 4 hr, dose 5 mg/kg, time lower 0.083 hr, route […]; settings: in vivo, po
[24] = Half life in Sprague-Dawley rat at 1 mg/kg, iv measured for 0.083 to 4 hrs by LC-MS/MS analysis; type: ADME, organism-based; settings: in vivo

## CNCCn1c(=O)c2cc(OC)c(OC)cc2c2ccc3cc4c(cc3c21)OCO4
[1]
  viability at 1 µM: 88.1%
[2]
  Activity: Dose-dependent effect
[3]
  F: 20.4%
[4]
  viability at 0.5 µM: 93.3%
[5]
  Activity: Active
[6]
  Cmax: 19 ng/mL
[7]
  inhibition: Dose-dependent effect
[8]
  MRT inf: 1.46 h
[9]
  inhibition in vivo at 10 mg/kg: 64.5%
[10]
  solubility: Soluble
[11]
  GI50: 430 nM
[12]
  LD50: 192 mg/kg
[13]
  viability at 2 µM: 69.4%
[14]
  survival at 168 h: 100%
[15]
  AUC(0-inf): 49.5 ng·h/mL
[16]
  Activity: Toxic
[17]
  inhibition in vivo at 5 mg/kg: 44%
[18]
  inhibition: Dose-dependent effect
[19]
  inhibition in vivo at 20 mg/kg: 71.8%
[20]
  Activity: Active
[21]
  GI50: 320 nM
[22]
  AUC(0-t): 47.2 ng·h/mL
[23]
  AUCt: 48.3 ng·h/mL
[24]
  half-life: 1.21 h
